Key:
[1] = tested on: C-26 colon adenocarcinoma cachexia model; assay: Combined androgen and AR-42 study (Study 3), C-26 model; type: in vivo, mouse; settings: Study 3
Description: These studies were performed as previously described (Tseng Y C, et al. J Natl Cancer Inst. 2015 107(12):djv274) with modifications. Tumors were established in the right flank by subcutaneous injection of C-26 cells (0.5×10^6 cells in 0.1 mL). […] TFM-4AS-1 (a potent experimental SARM), dihydrotestosterone (DHT) and vehicles were administered by subcutaneous injection.
Six days after cell injection, animals with palpable tumors were treated once daily for 13 days with vehicles for AR-42 and TFM-4AS-1/DHT (n=9), AR-42 (10 mg/kg; TFM-4AS-1/DHT vehicle; n=10), TFM-4AS-1 (10 mg/kg; AR-42 vehicle; n=9), DHT (3 mg/kg; AR-42 vehicle; n=10), the combination of AR-42 and TFM-4AS-1 (10 mg/kg each; n=9), or the combination of AR-42 (10 mg/kg) and DHT (3 mg/kg)(n=10). Grip strength was measured and tissues collected as in the previous studies.
Forelimb grip strength was measured using Bio-GS3 Grip Strength Test Meter (Forceleader DBA Bioseb, Pinellas Park, Fla.). Each mouse was held by the base of its tail and lowered over the apparatus until its forepaws grasped the metal pull bar. The mouse was then gently pulled horizontally in a straight line away from the grip strength meter until the mouse released the bar. The force applied to the bar at the moment of release was recorded as the peak force. Five measurements were taken from each mouse, the average of which was designated as the mouse's grip strength.

[2] = Jones et al. 2010; cited from earlier work

Compound: C[C@]12CCC(=O)C[C@@H]1CC[C@@H]1[C@@H]2CC[C@]2(C)[C@@H](O)CC[C@@H]12 [DHT, dihydrotestosterone]
- tumor growth ([1]; DHT alone 3 mg/kg, after 8 days of administration): tumor growth was significantly suppressed

Compound: C[C@](O)(COc1ccc(Cl)c(F)c1)C(=O)Nc1ccc(C#N)c(C(F)(F)F)c1 [S-23]
- effect on orchiectomy- and glucocorticoid-mediated wasting [2]: reversed orchiectomy- and glucocorticoid-mediated wasting

Compound: CN1C(=O)C=C[C@]2(C)[C@H]3CC[C@]4(C)[C@@H](C(=O)Nc5ccccc5C(F)(F)F)CC[C@H]4[C@@H]3CC[C@@H]12 [TFM-4AS-1]
- effect on body weight ([1]; TFM-4AS-1 10 mg/kg monotherapy): did not spare body weight
- effect on mass of gastrocnemius or quadriceps ([1]; monotherapy (TFM-4AS-1 10 mg/kg; AR-42 10 mg/kg)): did not spare
